# Reference: patent publication US20250186456A1, “PYRIMIDINE-FUSED CYCLIC COMPOUND AND PREPARATION METHOD AND USE THEREOF” (Genfleet Therapeutics (Shanghai) Inc., priority 2021, published 2025)
# Read-outs that look alike come from different tables or passages of the source.
# Tests used:
# Assay type in all cases: cell-based, human
# [1] = test system: p-ERK in AGS cells (KRAS G12D mutation); assay: Cell p-ERK assay (HTRF, Advance ERK phospho-T202/Y204 kit); conditions: AGS cells, 3 hours incubation with compound, HTRF, read-out: AGS p-ERK IC50
# Method in brief: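 Phospho-ERK (T202/Y204) measured by HTRF in lysates of human gastric AGS cells carrying KRAS G12D, after 3 h compound exposure at 0.1% DMSO over a 3.16-fold series. Percent inhibition relative to DMSO control and lysis-only blank; four-parameter curve fitting gave IC50.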
# [2] = test system: AsPC-1 cells (KRAS G12D mutation); assay: Cell proliferation inhibition assay, 3D, CellTiter-Glo 3D, AsPC-1; conditions: AsPC-1 3D sphere model, 5 days incubation
# Method in brief: (§1)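 Spheroids (800 AsPC-1 or 400 AGS cells/well; RPMI-1640 or F-12K with 10% FBS) formed overnight, then were dosed on day 2 with a 3.16-fold series at 0.1% DMSO. After 5 days, viability was read by CellTiter-Glo 3D luminescence, and IC50 came from four-parameter fits of inhibition versus DMSO control and medium blank.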
# AGS cells (KRAS G12D) = assay: Cell proliferation inhibition assay, 3D, CellTiter-Glo 3D, AGS; conditions: AGS 3D sphere model, 5 days incubation
# Method in brief: as §1
IC50 [1] [µM],IC50 [2] [µM],IC50 (AGS cells (KRAS G12D)) [µM],Structure (SMILES),IC50 ([1]; Homo sapiens) [µM],"IC50 ([2]; Homo sapiens, ASPC1, 120 h) [µM]","IC50 (AGS cells (KRAS G12D); Homo sapiens, 120 h) [µM]"
–,–,–,"C#Cc1cccc2cccc(-c3nc4c5c(nc(OC[C@@]67CCCN6CCC7=C)nc5c3F)N3C[C@H]5CC[C@H](N5)[C@H]3[C@H](C)O4)c12 [Example Z702, (5S,5aS,6S,9R)-2-(8-ethynylnaphthalen-1-yl)-1-fluoro-5-methyl-12-(((S)-1-methylenetetrahydro-1H-pyrrolizin-7a (5H)-yl)methoxy)-5a,6,7,8,9,10-hexahydro-5H-4-oxa-3,10a, 11,13,14-pentaaza-6,9-methanonaphtho[1,8-ab]heptalene]",0.0111,0.0519,0.0268
0.00573,0.0379,0.013,"C#Cc1c(F)ccc2cccc(-c3nc4c5c(nc(OCC67CC(OC)CN6CCC7=C)nc5c3F)N3C[C@H]5CC[C@H](N5)[C@H]3[C@H](C)O4)c12 (stereo partly drawn) [Example Z681, (5S,5aS,6S,9R)-2-(8-Ethynyl-7-Fluoronaphthalen-1-Yl)˜1-Fluoro-12-((6-Methoxy-1-Methylenetetrahydro-1H-Pyrrolizin-7a (5H)-Yl)Methoxy)-5-Methyl-5a,6,7,8,9,10-Hexahydro-5H-4-Oxa-3,10a,11,13,14-Pentaaza-6,9-Methanonaphtho[1,8-Ab]Heptalene]",–,–,–
–,–,–,"C[C@@H]1Oc2nc(-c3cc(N)cc4ccc(F)c(F)c34)c(F)c3nc(OCC45CCCN4CC(F)(F)C5)nc(c23)N2C[C@H]3CC[C@H](N3)[C@@H]12 (stereo partly drawn) [Example Z720, 4-((5S,5aS,6S,9R)-12-((2,2-difluorotetrahydro-1H-pyrrolizin-7a (5H)-yl)methoxy)-1-fluoro-5-methyl-5a,6,7,8,9,10-hexahydro-5H-4-oxa-3,10a, 11,13,14-pentaaza-6,9-methanonaphtho[1,8-ab]heptalene-2-yl)-5,6-difluoronaphthalen-2-amine]",0.0351,0.0334,0.0157
–,–,–,"C#Cc1c(F)ccc2cccc(-c3nc4c5c(nc(OC[C@@]67CCCN6CCC7=C)nc5c3F)N3C[C@H]5CC[C@H](N5)[C@H]3[C@H](C)O4)c12 [Example Z639, (5S,5aS,6S,9R)-2-(8-ethynyl-7-fluoronaphthalen-1-yl)-1-fluoro-5-methyl-12-(((S)-1-methylenetetrahydro-1H-pyrrolizin-7a (5H)-yl)methoxy)-5a,6,7,8,9,10-hexahydro-5H-4-oxa-3,10a, 11, 13,14-pentaaza-6,9-methanonaphtho[1,8-ab]heptalene]",0.0334,0.0937,0.113
–,–,–,"C#Cc1cccc2nc(N)cc(-c3nc4c5c(nc(OCC67CCCN6CC(F)(F)C7)nc5c3F)N3C[C@H]5CC[C@H](N5)[C@H]3[C@H](C)O4)c12 (stereo partly drawn) [Example Z726, 4-((5S,5aS,6S,9R)-12-((2,2-difluorotetrahydro-1H-pyrrolizin-7a (5H)-yl)methoxy)-1-fluoro-5-methyl-5a,6,7,8,9,10-hexahydro-5H-4-oxa-3,10a, 11,13,14-pentaaza-6,9-methanonaphtho[1,8-ab]heptalene-2-yl)-5-ethynylquinolin-2-amine]",0.0788,0.638,0.133
0.0819,0.405,0.107,"C#Cc1c(F)ccc2cccc(-c3nc4c5c(nc(OCC67CCCN6[C@H]6C[C@H]6C7)nc5c3F)N3C[C@H]5CC[C@H](N5)[C@H]3[C@H](C)O4)c12 (stereo partly drawn) [Example Z625, (5S,5aS,6S,9R)-2-(8-Ethynyl-7-Fluoronaphthalen-1-Yl)-1-Fluoro-12-(((1aS,6aS)-Hexahydrocyclopropa[b]Pyrrolizin-Sa (3H)-Yl)Methoxy)-5-Methyl-5a,6,7,8,9,10-Hexahydro-5H-4-Oxa-3,10a,11,13,14-Pentaaza-6,9-Methanonaphtho[1,8-Ab]Heptalene]",–,–,–
0.00288,0.0118,0.0108,"C#Cc1cccc2cc(N)cc(-c3nc4c5c(nc(OC[C@@H]6C[C@@H](F)CN6C)nc5c3F)N3C[C@H]5CC[C@H](N5)[C@H]3[C@H](C)O4)c12 [Example Z732, 5-ethynyl-4-((5S,5aS,6S,9R)-1-fluoro-12-(((28,4R)-4-fluoro-1-methylpyrrolidin-2-yl)methoxy)-5-methyl-5a,6,7,8,9,10-hexahydro-5H-4-oxa-3,10a, 11, 13, 14-pentaaza-6,9-methanonaphtho[1,8-ab]heptalene-2-yl) naphthalen-2-amine]",–,–,–
–,–,–,"C#Cc1c(F)ccc2cccc(-c3nc4c5c(nc(OCC67CC(=C)CN6C[C@H]6C[C@H]67)nc5c3F)N3C[C@H]5CC[C@H](N5)[C@H]3[C@H](C)O4)c12 (stereo partly drawn) [Example Z606, (5S,5aS,6S,9R)-2-(8-ethynyl-7-fluoronaphthalen-1-yl)-1-fluoro-5-methyl-12-(((1aS,6bR)-5-methylenehexahydrocyclopropa[a]pyrrolizin-6a (4H)-yl)methoxy)-5a,6,7,8,9,10-hexahydro-5H-4-oxa-3,10a,11,13,14-pentaaza-6,9-methanonaphtho[1,8-ab]heptalene]",0.874,0.802,0.908
0.0375,0.105,0.0436,C#Cc1c(F)ccc2cccc(-c3nc4c5c(nc(OCC6(CN7CCC(O)C7)CC6)nc5c3F)N3C[C@H]5CC[C@H](N5)[C@H]3[C@H](C)O4)c12 (stereo partly drawn) [Example Z721],–,–,–
–,–,–,"C#Cc1cccc2c(F)c(N)cc(-c3nc4c5c(nc(OCC6(CN7CCOCC7)CC6)nc5c3F)N3C[C@H]5CC[C@H](N5)[C@H]3[C@H](C)O4)c12 [Example Z715, 5-ethynyl-1-fluoro-4-((5S,5aS,6S,9R)-1-fluoro-5-methyl-12-((1-(morpholinomethyl)cyclopropyl)methoxy)-5a,6,7,8,9,10-hexahydro-5H-4-oxa-3,10a, 11,13, 14-pentaaza-6,9-methanonaphtho[1,8-ab]heptalen-2-yl) naphthalen-2-amine]",0.00194,0.00383,0.00344
0.0485,0.0987,0.0479,C#Cc1c(F)ccc2cccc(-c3nc4c5c(nc(OCC67CCC8(CC8)N6CC(=C)C7)nc5c3F)N3C[C@H]5CC[C@H](N5)[C@H]3[C@H](C)O4)c12 (stereo partly drawn) [Example Z597],–,–,–
–,–,–,"C#Cc1c(F)ccc2cccc(-c3nc4c5c(nc(OCC67CC(=C)CN6C[C@H](F)C7)nc5c3F)N3C[C@H]5CC[C@H](N5)[C@H]3[C@H](CO)O4)c12 (stereo partly drawn) [Example Z654, ((5R,5aS,6S,9R)-2-(8-ethynyl-7-fluoronaphthalen-1-yl)-1-fluoro-12-(((2R)-2-fluoro-6-methylenetetrahydro-1H-pyrrolizin-7a (5H)-yl)methoxy)-5a,6,7,8,9,10-hexahydro-5H-4-oxa-3,10a,11,13,14-pentaaza-6,9-methanonaphtho[1,8-ab]heptalen-5-yl)methanol]",0.136,0.389,0.726
–,–,–,"C#Cc1c(F)ccc2cccc(-c3nc4c5c(nc(OCC67CC8CC8N6CCC7=C)nc5c3F)N3C[C@H]5CC[C@H](N5)[C@H]3[C@H](C)O4)c12 (stereo partly drawn) [Example Z635, (5S,5aS,6S,9R)-2-(8-ethynyl-7-fluoronaphthalen-1-yl)-1-fluoro-5-methyl-12-((5-methylenehexahydrocyclopropa[b]pyrrolizin-5a (3H)-yl)methoxy)-5a,6,7,8,9,10-hexahydro-5H-4-oxa-3,10a, 11,13,14-pentaaza-6,9-methanonaphtho[1,8-ab]heptalene]",0.05,0.218,0.224
–,–,–,"C#Cc1c(F)ccc2cccc(-c3nc4c5c(nc(OCC67CCCN6CC(=C)C7)nc5c3F)N3C[C@H]5CC[C@H](N5)[C@H]3[C@H](C)O4)c12 (stereo partly drawn) [Example Z590, (5S,5aS,6S,9R)-2-(8-ethynyl-7-fluoronaphthalen-1-yl)-1-fluoro-5-methyl-12-((2-methylenetetrahydro-1H-pyrrolizin-7a (5H)-yl)methoxy)-5a,6,7,8,9,10-hexahydro-5H-4-oxa-3,10a,11,13,14-pentaaza-6,9-methanonaphtho[1,8-ab]heptalene]",0.00711,0.114,0.0173
–,–,–,C#Cc1c(F)ccc2cccc(-c3nc4c5c(nc(OCC67CC(=C)CN6CC(=C)C7)nc5c3F)N3C[C@H]5CC[C@H](N5)[C@H]3CCO4)c12 [Example Z629],0.05,0.167,0.0517
–,–,–,"C#Cc1c(F)ccc2cccc(-c3nc4c5c(nc(OCC67C[C@@H](F)CN6CCC7=C)nc5c3F)N3C[C@H]5CC[C@H](N5)[C@H]3[C@H](C)O4)c12 (stereo partly drawn) [Example Z675, (5S,5aS,6S,9R)-2-(8-ethynyl-7-fluoronaphthalen-1-yl)-1-fluoro-12-(((6R)-6-fluoro-1-methylenetetrahydro-1H-pyrrolizin-7a (5H)-yl)methoxy)-5-methyl-5a,6,7,8,9,10-hexahydro-5H-4-oxa-3,10a,11,13,14-pentaaza-6,9-methanonaphtho[1,8-ab]heptalene]",0.0111,0.0312,0.0312
0.00116,0.003,0.00103,"C[C@@H]1Oc2nc(-c3cc(N)cc4ccc(F)c(F)c34)c(F)c3nc(OCC4(CN5CCOCC5)CC4)nc(c23)N2C[C@H]3CC[C@H](N3)[C@@H]12 [Example Z719, 5,6-difluoro-4-((5S,5aS,6S,9R)-1-fluoro-S-methyl-12-((1-(morpholinomethyl)cyclopropyl)methoxy)-5a,6,7,8,9,10-hexahydro-5H-4-oxa-3,10a, 11,13,14-pentaaza-6,9-methanonaphtho[1,8-ab]heptalene-2-yl) naphthalen-2-amine]",–,–,–
